Test results taken from US10556860B2, “hTERT modulators and methods of use” (Arizona Board of Regents on Behalf of the University of …, priority 2015, dated 2020).

Assays:
BCL2 mRNA = assay: qPCR of BCL2 mRNA in MCF7 cells; format: cell-based, human; settings: 72 h
Method: (§1) qPCR. MCF7 and melanoma cells were treated with GTC365 and BRACO-19 for 72 h. Total RNA was extracted using an RNeasy mini-prep kit (Qiagen) and quantitated by measuring absorbance at 260 nm. cDNA was synthesized using a Takara PrimeScript™ RT Reagent Kit with gDNA eraser and then used as a template for qPCR. The qPCR was performed using Kapa Probe Fast qPCR Master Mix with ABI Taqman probes of hTERT (Hs00972656_m1), BCL2 (HS00608023_m1, FAM-labeled) or MYC (Hs00153408_m1), and GAPDH (Hs02758991_g1, VIC-labeled). The Ct values were measured by running Rotor-Gene Q, and the relative quantity of hTERT, BCL2, and MYC mRNA was obtained compared to GAPDH as an internal control.
(§2) BCL2 is a downstream molecule to hTERT such that BCL2 expression is activated by hTERT to repress apoptosis. To further define the effect of GTC365 on the transcription of hTERT, the relative mRNA levels of MYC and BCL2 were determined by quantitative PCR analysis in MCF7 cells after treatment with GTC365 for 72 h. […] A series of GTC260 analogs were synthesized and their effect on hTERT gene expression in MCF7A and U87 cells determined (FIG. 7). […] Therefore, GTC365 directly repressed the transcription of hTERT and then led to a downstream decrease of BCL2 expression.

MYC mRNA = assay: qPCR of MYC mRNA in MCF7 cells; format: cell-based, human; settings: 72 h
Method: as §1, §2

Cc1cc(NC(=O)NC(=O)c2ccccc2NC(=O)C(C)N)ccc1Oc1ncc(Br)cn1 (centres unmarked) [GTC260]
effect on BCL2 mRNA level (BCL2 mRNA): direct repression of hTERT transcription and the downstream molecule BCL2
effect on MYC mRNA level (MYC mRNA): no effect
